Literature values, collected in patent US20170128482A1, “MODIFIED RELEASE PHARMACEUTICAL COMPOSITIONS OF […] RIBAVIRIN” (SANOVEL ILAC SANAYI VE TICARET A.S., priority 2014, published 2017).

Experiments:
[1] = system: chronic hepatitis C (CHC) infections / HCV; details: ribavirin alone

Molecule | metabolism by Cytochrome P450 (CYP450) (Cytochrome P450 (CYP450)) | sustained virologic response [1] | HCV RNA levels ([1]; during or after therapy) | alanine aminotransferase (ALT) levels ([1]; during the course of treatment, some patients with CHC)
CC(C)OC(=O)[C@H](C)N[P@](=O)(OC[C@H]1O[C@@H](n2ccc(=O)[nH]c2=O)[C@](C)(F)[C@@H]1O)Oc1ccccc1 [Sofosbuvir, (S)-Isopropyl 2-((S)-(((2R,3R,4R,5R)-5-(2,4-dioxo3,4-dihydropyrimidin-1(2H)-yl)-4-fluoro-3-hydroxy-4-methyltetrahydrofuran-2yl)methoxy)-(phenoxy)phosphorylamino)propanoate] | not metabolized | – | – | –
1-β-Dribofuranosyl-1H-1,2,4-triazole-3-carboxamide [Ribavirin] | – | did not produce any sustained virologic response | did not reduce | transiently
